Source: PubChem BioAssay (NCI)
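Growth conditions: 96-well plates. Treatment: test compound, 48 hours, 5 concentrations. Analysis: linear interpolation between bracketing concentrations; unreached endpoints set to highest concentration. Abbreviation: GI50, concentration required for 50% inhibition of growth. TGI: total growth inhibition.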

How the values were obtained:
Test in all cases: NCI-60 cell line screen, 48 h
[1] = tested on: NCI-H23 lung
[2] = tested on: OVCAR-5 ovarian
[3] = tested on: CAKI-1 renal
[4] = tested on: SF-539 CNS
[5] = tested on: M14 melanoma
[6] = tested on: MCF7 breast
[7] = tested on: HOP-92 NSCLC
[8] = tested on: MOLT-4 leukemia
[9] = tested on: OVCAR-3 ovarian
[10] = tested on: SK-MEL-28 melanoma
[11] = tested on: NCI/ADR-RES ovarian
[12] = tested on: HS 578T breast
[13] = tested on: RPMI-8226 leukemia
[14] = tested on: COLO 205 colon
[15] = tested on: RXF 393 renal
[16] = tested on: MDA-MB-435
[17] = tested on: SN12C renal
[18] = tested on: HT29 colon
[19] = tested on: 786-0 renal
[20] = tested on: SNB-75 CNS
[21] = tested on: SF-268 CNS
[22] = tested on: HCT-116 colon
[23] = tested on: SW-620 colon
[24] = tested on: IGROV1 ovarian
[25] = tested on: PC-3 prostate
[26] = tested on: SK-OV-3 ovarian
[27] = tested on: SNB-19 CNS
[28] = tested on: MALME-3M melanoma
[29] = tested on: NCI-H522 lung
[30] = tested on: TK-10 renal
[31] = tested on: U251 CNS
[32] = tested on: BT-549 breast
[33] = tested on: NCI-H226 lung
[34] = tested on: UACC-257 melanoma
[35] = tested on: CCRF-CEM leukemia
[36] = tested on: SF-295 CNS
[37] = tested on: ACHN renal
[38] = tested on: T-47D breast
[39] = tested on: A549 NSCLC
[40] = tested on: UACC-62 melanoma
[41] = tested on: SK-MEL-2 melanoma
[42] = tested on: LOX IMVI melanoma
[43] = tested on: HCC-2998 colon
[44] = tested on: HL-60(TB) leukemia
[45] = tested on: K-562 leukemia
[46] = tested on: KM12 colon
[47] = tested on: EKVX NSCLC
[48] = tested on: OVCAR-8 ovarian
[49] = tested on: UO-31 renal
[50] = tested on: NCI-H460 lung
[51] = tested on: DU-145 prostate
[52] = tested on: HOP-62 NSCLC
[53] = tested on: OVCAR-4 ovarian
[54] = tested on: SK-MEL-5 melanoma
[55] = tested on: A498 renal
[56] = tested on: MDA-MB-231 breast
[57] = tested on: HCT-15 colon
[58] = tested on: SR leukemia

CS(=O)(=O)c1ccc2c(c1)c1c(n2C(=O)c2ccc(Cl)cc2)CCCC1
GI50 [1]: 28.2 µM
TGI [1]: > 100 µM
GI50 [2]: 19.8 µM
TGI [2]: > 100 µM
GI50 [3]: 2.19 µM
TGI [3]: > 100 µM
GI50 [4]: 6.31 µM
TGI [4]: 35 µM
GI50 [5]: 1.56 µM
TGI [5]: > 100 µM
GI50 [6]: 1.08 µM
TGI [6]: > 100 µM
GI50 [7]: 2.63 µM
TGI [7]: > 100 µM
GI50 [8]: 2.86 µM
TGI [8]: > 100 µM
GI50 [9]: 5.01 µM
TGI [9]: 46.3 µM
GI50 [10]: 2.97 µM
TGI [10]: > 100 µM
GI50 [11]: 1.4 µM
TGI [11]: > 100 µM
GI50 [12]: 1.41 µM
TGI [12]: > 100 µM
GI50 [13]: 4.6 µM
TGI [13]: > 100 µM
GI50 [14]: 18.9 µM
TGI [14]: > 100 µM
GI50 [15]: 4.23 µM
TGI [15]: 40.7 µM
GI50 [16]: 0.614 µM
TGI [16]: 1.51 µM
GI50 [17]: 3.43 µM
TGI [17]: > 100 µM
GI50 [18]: 4.34 µM
TGI [18]: 67.4 µM
GI50 [19]: 3.4 µM
TGI [19]: > 100 µM
GI50 [20]: 5.05 µM
TGI [20]: 64.9 µM
GI50 [21]: 21.5 µM
TGI [21]: > 100 µM
GI50 [22]: 1.27 µM
TGI [22]: > 100 µM
GI50 [23]: 1.61 µM
TGI [23]: > 100 µM
GI50 [24]: 3.34 µM
TGI [24]: > 100 µM
GI50 [25]: 4.75 µM
TGI [25]: > 100 µM
GI50 [26]: 22.1 µM
TGI [26]: > 100 µM
GI50 [27]: 4.16 µM
TGI [27]: > 100 µM
GI50 [28]: 7.23 µM
TGI [28]: > 100 µM
GI50 [29]: 0.717 µM
TGI [29]: 2.57 µM
GI50 [30]: > 100 µM
TGI [30]: > 100 µM
GI50 [31]: 3.41 µM
TGI [31]: > 100 µM
GI50 [32]: 1.64 µM
TGI [32]: > 100 µM
GI50 [33]: 4.62 µM
TGI [33]: > 100 µM
GI50 [34]: > 100 µM
TGI [34]: > 100 µM
GI50 [35]: 2.05 µM
TGI [35]: > 100 µM
GI50 [36]: 1.96 µM
TGI [36]: > 100 µM
GI50 [37]: 5.1 µM
TGI [37]: > 100 µM
GI50 [38]: 2.54 µM
TGI [38]: > 100 µM
GI50 [39]: 13.5 µM
TGI [39]: > 100 µM
GI50 [40]: 1.27 µM
TGI [40]: > 100 µM
GI50 [41]: 1.15 µM
TGI [41]: > 100 µM
GI50 [42]: 2.43 µM
TGI [42]: > 100 µM
GI50 [43]: 16.8 µM
TGI [43]: > 100 µM
GI50 [44]: 1.13 µM
GI50 [45]: 1.31 µM
TGI [45]: > 100 µM
GI50 [46]: 1.59 µM
TGI [46]: > 100 µM
GI50 [47]: 14 µM
TGI [47]: > 100 µM
GI50 [48]: 6.49 µM
TGI [48]: > 100 µM
GI50 [49]: 3.22 µM
TGI [49]: > 100 µM
GI50 [50]: 1.5 µM
TGI [50]: > 100 µM
GI50 [51]: 7.52 µM
TGI [51]: > 100 µM
GI50 [52]: 4.48 µM
TGI [52]: > 100 µM
GI50 [53]: 21.1 µM
TGI [53]: > 100 µM
GI50 [54]: 2.45 µM
TGI [54]: > 100 µM
GI50 [55]: > 100 µM
TGI [55]: > 100 µM
GI50 [56]: 6.83 µM
TGI [56]: > 100 µM
GI50 [57]: 1.32 µM
TGI [57]: > 100 µM
GI50 [58]: 1.1 µM
TGI [58]: > 100 µM
